Here are results for eight compounds from ChEMBL document CHEMBL1201862, “PubChem BioAssay data set” (2004).

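Assay format: 96-well plates, 48-hour exposure. GI50 is the concentration that inhibits growth by half.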 The source made the active and inactive calls. No stated cut-off is given here; in the data, active = GI50 up to about 1.1 µM and inactive = higher.

Test systems include SK-OV-3; SNB-75; A549; SW-620; SK-MEL-5; SF-539; HCC 2998; MDA-N; NCI-H522; OVCAR-5; A498; UACC-257; MDA-MB-231; UO-31; 786-0; U-251; HCT-15; IGROV-1; MOLT-4; K562.
Holding throughout (experiment): growth of human tumour cells (NCI), 48 h

For the compound `Cc1cc2[nH]c3c(C#N)c(-c4ccccc4)c(/N=N/c4ccc(F)cc4)c(=O)n3c2cc1C`, the GI50 in the test on SK-OV-3 is > 100 µM (inactive); in the test with SNB-75 it was 36.2 µM (inactive); in the test on A549, 68.1 µM (inactive); in the test on SW-620, > 100 µM (inactive); with SK-MEL-5, 9.55 µM (inactive); in the test with SF-539, > 100 µM (inactive). For the same compound, the GI50 in the test on HCC 2998 was > 100 µM (inactive); with MDA-N it was > 100 µM (inactive); in the test on NCI-H522, 18.5 µM (inactive); in the test on OVCAR-5, > 100 µM (inactive); in the test on A498, > 100 µM (inactive); in the test with UACC-257, > 100 µM (inactive). Further, the GI50 was > 100 µM (inactive) in the test on MDA-MB-231; > 100 µM (inactive) in the test on UO-31; 31 µM (inactive) with 786-0; 42.5 µM (inactive) in the test with U-251; 36.6 µM with HCT-15.

For `CCOc1ccccc1/N=N/C1C(=O)N(C(=O)CC(=O)Nc2ccccc2OC)N=C1C` (configuration not stated), the GI50 is 27.5 µM (inactive) in the test with SK-OV-3; 16.3 µM (inactive) in the test with SNB-75; 50.8 µM (inactive) in the test on IGROV-1; > 100 µM (inactive) in the test with MOLT-4; > 100 µM (inactive) in the test on A549; > 100 µM (inactive) in the test with SW-620. For the same compound, the GI50 in the test with SK-MEL-5 was > 100 µM (inactive); with SF-539 it was 53.2 µM (inactive); with HCC 2998 it was > 100 µM (inactive); in the test with MDA-N, > 100 µM (inactive); with NCI-H522 it was 42.9 µM (inactive); in the test on OVCAR-5 it was > 100 µM (inactive). The GI50 was 63.4 µM (inactive) in the test with A498; 30.3 µM (inactive) in the test with MDA-MB-231; 27.8 µM (inactive) in the test with UO-31; 56.2 µM (inactive) with 786-0; 27.3 µM (inactive) in the test with U-251; 15.7 µM in the test with HCT-15.

For `COc1cc(C)c(/C=C2/N=C(c3ccccc3)OC2=O)c([N+](=O)[O-])c1OC`, the GI50 was > 100 µM (inactive) in the test with SK-OV-3; 89.1 µM (inactive) with SNB-75; > 100 µM (inactive) with IGROV-1; > 100 µM (inactive) with MOLT-4; > 100 µM (inactive) in the test with A549; > 100 µM (inactive) in the test on SW-620. Besides, the GI50 in the test on SF-539, in the test with HCC 2998, in the test with MDA-N, in the test with NCI-H522, with OVCAR-5 and in the test on A498 was > 100 µM (inactive) each time. Also, the GI50 is > 100 µM (inactive) with K562; > 100 µM (inactive) in the test with UACC-257; > 100 µM (inactive) with MDA-MB-231; > 100 µM (inactive) in the test on 786-0; > 100 µM (inactive) in the test on U-251; > 100 µM with HCT-15.

For `COc1ccc(NC(=O)CSc2nc(C)nc3c2sc(=S)n3-c2ccccc2)cc1`, the GI50 is > 10 µM (inactive) with SK-OV-3; 2.97 µM (inactive) in the test with SNB-75; > 10 µM (inactive) with IGROV-1; > 10 µM (inactive) with MOLT-4; > 10 µM (inactive) in the test on A549; > 10 µM (inactive) in the test with SW-620. Moreover, the GI50 in the test on SK-MEL-5 was > 10 µM (inactive); in the test on SF-539 it was 2.43 µM (inactive); in the test on HCC 2998, > 10 µM (inactive); with MDA-N, > 10 µM (inactive); in the test with NCI-H522 it was > 10 µM (inactive); with OVCAR-5, > 10 µM (inactive). Besides, the GI50 in the test with A498 was 5 µM (inactive); in the test on K562, > 10 µM (inactive); in the test with UACC-257, > 10 µM (inactive); in the test on MDA-MB-231 it was > 10 µM (inactive); in the test with 786-0 it was 3.39 µM (inactive); with U-251, > 10 µM (inactive). Moreover, the GI50 with HCT-15 is > 10 µM.

As to `COc1ccc2c(c1)[C@@H]1c3cc(OC)c(OC)cc3CCN1CCC2`, the GI50 is > 100 µM (inactive) with SNB-75; > 100 µM (inactive) in the test with IGROV-1; 33.3 µM (inactive) with MOLT-4; > 100 µM (inactive) in the test with A549; > 100 µM (inactive) in the test on SW-620; 36.7 µM (inactive) in the test with SK-MEL-5. In addition, the GI50 with SF-539, in the test with HCC 2998, in the test with MDA-N, with NCI-H522, in the test with OVCAR-5 and in the test on A498 was > 100 µM (inactive) each time. The GI50 with K562 is 65.3 µM (inactive); in the test on UACC-257, 19.7 µM (inactive); with MDA-MB-231, > 100 µM (inactive); in the test with UO-31, 72.9 µM (inactive); in the test with 786-0, > 100 µM (inactive); in the test on U-251, > 100 µM (inactive). In the test on HCT-15, this compound had a GI50 of 79.4 µM.

As to `CCOC(=O)c1c(SC(=O)c2ccc(C(C)(C)C)cc2)n(-c2ccccc2)c(=S)n(-c2ccccc2)c1=O`, the GI50 in the test with SK-OV-3 is > 100 µM (inactive); in the test on SNB-75, > 100 µM (inactive); in the test on IGROV-1, > 100 µM (inactive); in the test on MOLT-4, 59.4 µM (inactive); with A549, > 100 µM (inactive); with SW-620 it was > 100 µM (inactive). For the same compound, the GI50 in the test with SF-539, in the test with HCC 2998, with MDA-N, with NCI-H522, with OVCAR-5 and in the test with A498 was > 100 µM (inactive) in each case. Besides, the GI50 was > 100 µM (inactive) with K562; > 100 µM (inactive) in the test on UACC-257; > 100 µM (inactive) with MDA-MB-231; > 100 µM (inactive) in the test with 786-0; > 100 µM (inactive) in the test with U-251; > 100 µM in the test with HCT-15.

For the compound `CCNc1ncnc2c1nnn2CC`, the GI50 in the test on SK-OV-3 was > 100 µM (inactive); in the test with SNB-75 it was 77.1 µM (inactive); in the test with IGROV-1, > 100 µM (inactive); in the test with MOLT-4, > 100 µM (inactive); in the test with A549 it was > 100 µM (inactive); with SW-620 it was > 100 µM (inactive). Besides, the GI50 in the test on SK-MEL-5, in the test on SF-539, in the test with HCC 2998, with MDA-N, with NCI-H522 and in the test with A498 was > 100 µM (inactive) throughout. Besides, the GI50 in the test on K562, in the test on UACC-257, in the test on MDA-MB-231, in the test with UO-31, in the test with 786-0 and in the test on U-251 was > 100 µM (inactive) in each case. Further, the GI50 in the test on HCT-15 is > 100 µM.

For `COc1cccc2cc(C(=O)O)c(=O)oc12`, the GI50 with SNB-75, with IGROV-1, in the test on MOLT-4, in the test on A549, with SW-620 and with SK-MEL-5 was > 100 µM (inactive) in each case. Moreover, the GI50 with SF-539, in the test with HCC 2998, with MDA-N, in the test on NCI-H522, in the test with OVCAR-5 and with A498 was > 100 µM (inactive) in each case. For the same compound, the GI50 in the test with K562, in the test with UACC-257, with MDA-MB-231, in the test on UO-31, in the test with 786-0 and with U-251 was > 100 µM (inactive) in each case. Further, the GI50 in the test on HCT-15 is > 100 µM.
